Literature values, collected in patent US10463664B2, “Inhibitors of HSV nucleotidyl transferases and uses therefor” (Saint Louis University, priority 2013, dated 2019).

Biological target: T1, human RNaseH1 (Homo sapiens, UniProt O60930)
T1 construct: hexahistidine; made in house; host or cells: E. coli
T1 sequence (O60930 1-286): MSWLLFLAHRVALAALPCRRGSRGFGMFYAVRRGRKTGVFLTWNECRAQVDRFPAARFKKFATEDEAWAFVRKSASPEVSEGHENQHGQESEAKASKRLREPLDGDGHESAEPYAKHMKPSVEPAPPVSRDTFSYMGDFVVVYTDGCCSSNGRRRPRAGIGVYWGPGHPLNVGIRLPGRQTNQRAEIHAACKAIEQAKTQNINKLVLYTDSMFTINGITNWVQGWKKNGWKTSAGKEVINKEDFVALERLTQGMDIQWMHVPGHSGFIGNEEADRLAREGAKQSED
Details: Hu et al., 2013; cited from earlier work

Q: Which “Effect on RNase H1 (in words)” value does the source give for `CC(C)c1ccc(O)c(=O)c(O)c1` [Compound 46, Beta-thujaplicinol] here?
A: Its value is “no effect”.
